Measurements published in BindingDB's records for doi:10.1016/s0960-894x(02)00294-9 (Glaxosmithkline, 2002).

Target: Human cytomegalovirus protease (HHV-5)
Assay: Tested in vitro for its binding affinity against Protease

| Ki | Structure (SMILES) |
| --- | --- |
| 1.1 µM | C[C@@H]1[C@H](C)[C@@H]1C(=O)N1C(=O)[C@@H](C)[C@@H]2[C@@H]1CCN2C(=O)[C@@H]1CCCN1S(=O)(=O)c1cccc2c(N(C)C)cccc12 [4-[1-(5-dimethylamino-1-naphthylsulfonyl)tetrahydro-1H-2-pyrrolylcarbonyl]-1-(2,3-dimethylcyclopropylcarbonyl)-3-methylperhydropyrrolo[3,2-b]pyrrol-2-one] |
| 0.4 µM | C[C@@H]1C(=O)N(c2nccs2)[C@H]2CCN(C(=O)[C@@H]3CCCN3S(=O)(=O)c3cccc4c(N(C)C)cccc34)[C@H]12 [(3S,3aR,6aS)-4-[(S)-1-(5-Dimethylamino-naphthalene-1-sulfonyl)-pyrrolidine-2-carbonyl]-3-methyl-1-thiazol-2-yl-hexahydro-pyrrolo[3,2-b]pyrrol-2-one] |
